Measurements as given in publication PMC7287882, “Dual miRNases for Triple Incision of miRNA Target: Design Concept and Catalytic Performance” (Molecules, 2020).

Key:
miR-155 = assay: Ribonuclease activity assay, cleavage of miR-155; format: biochemical; details: miRNA 1 µM, DC 20 µM, 37 °C
Protocol: (§1) The ribonuclease activity of DCs was studied under two different buffer conditions: buffer (1) contained 50 mM Tris-HCl, pH 7.0, 200 mM KCl, 1 mM EDTA, which imitates intracellular conditions (e.g., pH and potassium ions concentration) and was used in a number of studies previously; and buffer (2) contained 20 mM Tris-HCl, pH 7.8, 40 mM KCl, 8 mM MgCl2, 1 mM DTT, 0.02 mg/mL BSA, which is recommended for in vitro reactions with RNase H (Figure 3 and Figure 4).
Figure 3 Kinetics of cleavage of 5′-[^32P]-labeled miR-17, miR-18a, miR-155, miR-21 and miR-21_1 by corresponding DCs in the buffer (1), containing 50 mM Tris-HCl, pH 7.0, 200 mM KCl and 1 mM EDTA. (a–e) Radioautographs of 18% denaturing PAAG showing the cleavage products of miR-17, miR-18a, miR-155, miR-21 and miR-21_1, respectively. miRNA (1 µM) and corresponding DC (20 µM) were incubated at 37 °C for 72 h. Lanes Im and T1—imidazole ladder and partial RNA digestion with RNase T1, respectively; control–miRNA was incubated in the absence of the conjugate. The incubation time (in hours) is show at the top. SS gap–single-stranded region of miRNA formed upon hybridization with DC; (f) Kinetics of miRNAs cleavage by DCs depending on the incubation time. Data are presented as mean ± s.e.
Figure 4 Kinetics of cleavage of 5′-[^32P]-labeled miR-17, miR-18a, miR-155, miR-21, and miR-21_1 by corresponding DCs in the buffer (2), containing 20 mM Tris-HCl, pH 7.8, 40 mM KCl, 8 mM MgCl2, 1 mM DTT, 0.02 mg/mL BSA. (a–e) Radioautographs of 18% denaturing PAAG showing the cleavage products of miR-17, miR-18a, miR-155, miR-21 and miR-21_1, respectively. miRNA (1 µM) and corresponding DC (20 µM) were incubated at 37 °C for 72 h. Lanes Im and T1–imidazole ladder and partial RNA digestion with RNase T1, respectively; control–miRNA was incubated in the absence of the conjugate. The incubation time (in hours) is shown at the top. SS gap–single-stranded region of miRNA formed upon hybridization with DC; (f) Kinetics of miRNAs cleavage by DCs. Data are presented as mean ± s.e.
(§2) The reaction mixture (10 µL) contained 800 cpm (Cherenkov’s counting) of [^32P]-miRNA, 1 μM unlabeled miRNA, one of the conjugates at a concentration 10 or 20 μM and one of the buffers: 50 mM Tris-HCl, pH 7.0, 200 mM KCl, 1 mM EDTA–buffer (1) or 20 mM Tris-HCl, pH 7.8, 40 mM KCl, 8 mM MgCl2, 1 mM DTT, 0.02 mg/mL BSA–buffer (2). The mixture was incubated at 37 °C for 0–72 h and quenched by precipitation of RNA with 2% LiClO4 in acetone (90 µL). RNA was collected by centrifugation and dissolved in loading buffer (8 M urea, 0.025% bromophenol blue, 0.025% xylene cyanol). RNA cleavage products were analyzed in 18% PAAG/8M urea using TBE (100 mM Tris-borate, pH 8.3, 2 mM EDTA) as running buffer. To identify cleavage sites, an imidazole and T1-ladders produced by partial RNA cleavage with 2 M imidazole buffer (pH 7.0) and with RNase T1 [68], respectively, were run in parallel. To obtain quantitative data, gels were dried and analyzed using Molecular Imager FX. The total extent of RNA cleavage and the extent of RNA cleavage at each individual site were determined by using Quantity One software v.4.1 (Bio-Rad, Hercules, CA, USA).

miR-21_1 = assay: Ribonuclease activity assay, cleavage of modified miR-21_1; format: biochemical; details: miRNA 1 µM, DC 20 µM, 37 °C
Protocol: as §1
Despite the high binding affinity of all DCs to their matching miRNA targets, miR-21 was not cleaved by the corresponding Dual conjugate (Figure 3d). The most probable reason for this was the absence of the pyrimidine-A sites sensitive towards cleavage by this type of conjugates within the single-stranded “gap” formed upon binding to conjugate. In order to verify this hypothesis, we tested the cleavage of the modified miR-21 sequence (miRNA-21_1) containing 2 substitutions in the gap region (AGACU → AUACA) to generate C-A and U-A bonds. Such replacement, indeed, led to a noticeable cleavage of the miR-21_1 target with miR-21-targeting DC at the introduced U11-A12 and C13-A14 sites (Figure 3e) with the cleavage efficiency reaching 18% (Figure 3f, Table S2).
as §2

[1] = buffer (1) 50 mM Tris-HCl pH 7.0, 200 mM KCl, 1 mM EDTA, 2 h
[2] = buffer (1) 50 mM Tris-HCl pH 7.0, 200 mM KCl, 1 mM EDTA, 24 h
[3] = buffer (1) 50 mM Tris-HCl pH 7.0, 200 mM KCl, 1 mM EDTA, 48 h
[4] = buffer (2) 20 mM Tris-HCl pH 7.8, 40 mM KCl, 8 mM MgCl2, 1 mM DTT, 0.02 mg/mL BSA, 6 h
[5] = buffer (2) 20 mM Tris-HCl pH 7.8, 40 mM KCl, 8 mM MgCl2, 1 mM DTT, 0.02 mg/mL BSA, 24 h
[6] = buffer (2) 20 mM Tris-HCl pH 7.8, 40 mM KCl, 8 mM MgCl2, 1 mM DTT, 0.02 mg/mL BSA, 48 h

Substance | Total Cleavage (miR-155; [1]) [%] | Total Cleavage (miR-155; buffer (1) 50 mM Tris-HCl pH 7.0, 200 mM KCl, 1 mM EDTA, 6 h) [%] | Total Cleavage (miR-155; [2]) | Total Cleavage (miR-155; [3]) [%] | Total Cleavage (miR-155; buffer (1) 50 mM Tris-HCl pH 7.0, 200 mM KCl, 1 mM EDTA, 72 h) [%] | Total Cleavage (miR-155; buffer (2) 20 mM Tris-HCl pH 7.8, 40 mM KCl, 8 mM MgCl2, 1 mM DTT, 0.02 mg/mL BSA, 2 h) [%] | Total Cleavage (miR-155; [4]) [%] | Total Cleavage (miR-155; [5]) [%] | Total Cleavage (miR-155; [6]) [%] | Total Cleavage (miR-155; buffer (2) 20 mM Tris-HCl pH 7.8, 40 mM KCl, 8 mM MgCl2, 1 mM DTT, 0.02 mg/mL BSA, 72 h) [%] | rise of Kobs in buffer (2) compared to Kobs in buffer (1) (miR-155) [fold] | Total Cleavage (miR-21_1; [1]) | Total Cleavage (miR-21_1; [2]) [%] | Total Cleavage (miR-21_1; [3]) [%] | Total Cleavage (miR-21_1; [4]) [%] | Total Cleavage (miR-21_1; [5]) [%] | Total Cleavage (miR-21_1; [6]) [%] | rise of Kobs in buffer (2) compared to Kobs in buffer (1) (miR-21_1) [fold]
ACCCCTAT–linker 1–[GRLRL]2–linker 2–TTAGCATTAA [miRNA-155-DC, Dual oligonucleotide-peptide conjugate targeted to miR-155: catalytic peptide [LRLRG]2 between two 2-aminoadenine-containing oligodeoxyribonucleotides] | 0 | 0 | 0,5% | 16 | 21 | 15 | 41 | 56 | 57 | 72 | 6 | – | – | – | – | – | – | –
TCAACATC–linker 1–[GRLRL]2–linker 2–GATAAGCTA [miRNA-21-DC, Dual oligonucleotide-peptide conjugate targeted to miR-21: catalytic peptide [LRLRG]2 between two 2-aminoadenine-containing oligodeoxyribonucleotides] | – | – | – | – | – | – | – | – | – | – | – | 0,7% | 10 | 18 | 14 | 48 | 63 | 3
